Here are results for 19 molecules from US12577206B2 (BRISTOL-MYERS SQUIBB COMPANY, priority 2020, dated 2026).

As a reminder, the EC50 is the concentration that produces a half-maximal response.

Bounds are passed on as bounds.

In one assay the target is T1, human FPR1 (Homo sapiens, UniProt P21462).
T1 sequence (P21462 1-350): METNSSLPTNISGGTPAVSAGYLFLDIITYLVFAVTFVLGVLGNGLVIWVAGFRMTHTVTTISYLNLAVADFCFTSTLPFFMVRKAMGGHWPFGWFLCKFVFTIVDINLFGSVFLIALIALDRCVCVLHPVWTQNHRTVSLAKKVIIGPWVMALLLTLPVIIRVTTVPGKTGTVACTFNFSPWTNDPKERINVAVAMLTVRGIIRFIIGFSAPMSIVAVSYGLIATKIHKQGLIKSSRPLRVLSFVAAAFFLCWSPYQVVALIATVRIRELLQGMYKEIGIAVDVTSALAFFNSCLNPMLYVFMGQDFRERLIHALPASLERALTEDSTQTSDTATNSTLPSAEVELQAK
Description: FPR1 cyclic adenosine monophosphate (cAMP) assay. The class given is cell-based. The settings on record: CHO cells overexpressing human FPR1; forskolin 10 μM; inhibition of cAMP production; HTRF; read-out: hFPR1 cAMP2 EC50. A digest of the protocol: (§1)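 CHO cells overexpressing human FPR1 (4,000/well) or FPR2 (2,000/well) were incubated 30 min at room temperature with compound (0.020 nM to 100 μM, 1% DMSO), IBMX 200 μM, and forskolin at 10 μM (FPR1) or 5 μM (FPR2), all final. HTRF cAMP read-out; inhibition fitted by 4-parameter logistic equation.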
For orientation: Cyclic AMP is a second messenger, typically raised through Gs and lowered through Gi signalling.

The target of another assay is T2, human FPR2 (Homo sapiens, UniProt P25090).
T2 sequence (P25090 1-351): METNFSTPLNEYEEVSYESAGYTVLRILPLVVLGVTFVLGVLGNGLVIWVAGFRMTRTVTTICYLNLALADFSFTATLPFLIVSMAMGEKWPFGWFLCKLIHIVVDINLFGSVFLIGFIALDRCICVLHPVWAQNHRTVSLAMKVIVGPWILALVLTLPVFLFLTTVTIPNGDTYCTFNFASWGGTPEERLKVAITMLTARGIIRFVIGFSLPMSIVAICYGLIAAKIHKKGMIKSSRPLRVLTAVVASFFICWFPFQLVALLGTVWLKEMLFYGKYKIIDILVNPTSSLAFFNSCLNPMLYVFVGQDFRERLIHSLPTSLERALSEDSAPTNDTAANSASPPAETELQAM
Description: FPR2 cyclic adenosine monophosphate (cAMP) assay. To be noted: CHO cells overexpressing human FPR2; forskolin 5 μM; inhibition of cAMP production; HTRF; read-out: hFPR2 cAMP2 EC50. The class given is cell-based. Summed up:
as §1

Take `COc1cc(F)c(-c2c(NC(=O)c3ccc(OC(F)F)cc3)c(=O)n(-c3cccn(C)c3=O)n2C)c(F)c1` [Example 395, N-(5-(2,6-Difluoro-4-methoxyphenyl)-1-methyl-2-(1-methyl-2-oxo-1,2-dihydropyridin-3-yl)-3-oxo-2,3-dihydro-1H-pyrazol-4-yl)-4-(difluoromethoxy)benzamide]: the values for the EC50 at human FPR1 and at human FPR2 were > 10000 nM and 61 nM, respectively.

With `COc1cc(F)c(-c2c(NC(=O)c3ccc(OC(F)F)cc3)c(=O)n(-c3cc(C#N)cc(C)n3)n2C)c(F)c1` [Example 328, N-(2-(4-Cyano-6-methylpyridin-2-yl)-5-(2,6-difluoro-4-methoxyphenyl)-1-methyl-3-oxo-2,3-dihydro-1H-pyrazol-4-yl)-4-(difluoromethoxy)benzamide], the figures for the concentration giving a half-maximal response (EC50) on human FPR1 and on human FPR2 were 1600 nM and 15 nM, respectively.

As to `COc1cc(F)c(-c2c(NC(=O)c3ccc(OC(F)F)cc3)c(=O)n(-c3cc(OCC4CCCO4)cc(C)n3)n2C)c(F)c1` (centres unmarked) [Example 396, N-(5-(2,6-Difluoro-4-methoxyphenyl)-1-methyl-2-(6-methyl-4-((tetrahydrofuran-2-yl)methoxy)pyridin-2-yl)-3-oxo-2,3-dihydro-1H-pyrazol-4-yl)-4-(difluoromethoxy)benzamide], the EC50 came to 300 nM at human FPR1 and 2 nM at human FPR2.

For the molecule `COc1cc(F)c(-c2c(NC(=O)c3ccc(Cl)cc3)c(=O)n(-c3ccc(F)cc3)n2C)c(F)c1` [Example 15, 4-chloro-N-[5-(2,6-difluoro-4-methoxyphenyl)-2-(4-fluorophenyl)-1-methyl-3-oxo-2,3-dihydro-1H-pyrazol-4-yl]benzamide], the concentration for a half-maximal effect (EC50) was > 10000 nM on human FPR1 and 30 nM on human FPR2.

In the case of `COc1cc(F)c(-c2c(NC(=O)c3ccc(OC(F)F)cc3)c(=O)n(-c3nc(N4CCNC(=O)C4)ccc3C(F)(F)F)n2C)c(F)c1` [Example 214, N-[5-(2,6-difluoro-4-methoxyphenyl)-1-methyl-3-oxo-2-[6-(3-oxopiperazin-1-yl)-3-(trifluoromethyl)pyridin-2-yl]-2,3-dihydro-1H-pyrazol-4-yl]-4-(difluoromethoxy)benzamide], the half-maximal effective concentration (EC50) at human FPR1 worked out at 150 nM; at human FPR2, 4 nM.

With `COc1cc(F)c(-c2c(NC(=O)c3ccc(OC(F)F)cc3)c(=O)n(-c3nc(N4CCN(S(C)(=O)=O)CC4)ccc3Cl)n2C)c(F)c1` [Example 247, N-{2-[3-chloro-6-(4-methanesulfonylpiperazin-1-yl)pyridin-2-yl]-5-(2,6-difluoro-4-methoxyphenyl)-1-methyl-3-oxo-2,3-dihydro-1H-pyrazol-4-yl}-4-(difluoromethoxy)benzamide], the results for the EC50 at human FPR1 and at human FPR2 were 630 nM and 5 nM, respectively.

As to `COc1cc(F)c(-c2c(NC(=O)c3ccc(OC(F)F)cc3)c(=O)n(-c3nc(NCC(C)(C)O)ccc3C(F)(F)F)n2C)c(F)c1` [Example 271, N-[5-(2,6-difluoro-4-methoxyphenyl)-2-{6-[(2-hydroxy-2-methylpropyl)amino]-3-(trifluoromethyl)pyridin-2-yl}-1-methyl-3-oxo-2,3-dihydro-1H-pyrazol-4-yl]-4-(difluoromethoxy)benzamide], the EC50 was > 10000 nM at human FPR1 and 3 nM on human FPR2.

Turning to `COc1cc(F)c(-c2c(NC(=O)c3ccc(OC(F)F)cc3)c(=O)n(-c3cc(F)ccc3Cl)n2C)c(F)c1` [Example 186, N-[2-(2-chloro-5-fluorophenyl)-5-(2,6-difluoro-4-methoxyphenyl)-1-methyl-3-oxo-2,3-dihydro-1H-pyrazol-4-yl]-4-(difluoromethoxy)benzamide], the concentration for a half-maximal effect (EC50) is > 10000 nM on human FPR1 and 10 nM at human FPR2.

Consider `COc1cc(OCC(C)(CO)CO)nc(-n2c(=O)c(NC(=O)c3ccc(OC(F)F)cc3)c(-c3c(F)cc(OC)cc3F)n2C)c1` [Example 325, N-(5-(2,6-Difluoro-4-methoxyphenyl)-2-(6-(3-hydroxy-2-(hydroxymethyl)-2-methylpropoxy)-4-methoxypyridin-2-yl)-1-methyl-3-oxo-2,3-dihydro-1H-pyrazol-4-yl)-4-(difluoromethoxy)benzamide], for which the half-maximal effective concentration (EC50) at human FPR1 was > 10000 nM; on human FPR2, 3 nM.

For `COc1cc(F)c(-c2c(NC(=O)c3ccc(OC(F)F)cc3)c(=O)n(-c3nc(C4CCC4)ccc3C#N)n2C)c(F)c1` [Example 191, N-(2-(3-cyano-6-cyclobutylpyridin-2-yl)-5-(2,6-difluoro-4-methoxyphenyl)-1-methyl-3-oxo-2,3-dihydro-1H-pyrazol-4-yl)-4-(difluoromethoxy)benzamide], the concentration giving a half-maximal response (EC50) is 4800 nM at human FPR1 and 2 nM on human FPR2.

As for `COc1cc(OCC2CCOC2)nc(-n2c(=O)c(NC(=O)c3ccc(OC(F)F)cc3)c(-c3c(F)cc(OC)cc3F)n2C)c1` (centres unmarked) [Example 351, N-(5-(2,6-Difluoro-4-methoxyphenyl)-2-(4-methoxy-6-((tetrahydrofuran-3-yl)methoxy)pyridin-2-yl)-1-methyl-3-oxo-2,3-dihydro-1H-pyrazol-4-yl)-4-(difluoromethoxy)benzamide], the concentration giving a half-maximal response (EC50) on human FPR1 is > 10000 nM; on human FPR2, 2 nM.

`CCOC(=O)Cn1c(=O)c(NC(=O)c2ccc(OC(F)F)cc2)c(-c2c(F)cc(OC)cc2F)n1C` [Example 21, ethyl 2-[3-(2,6-difluoro-4-methoxyphenyl)-4-[4-(difluoromethoxy)benzamido]-2-methyl-5-oxo-2,5-dihydro-1H-pyrazol-1-yl]acetate]: the figures for the EC50 at human FPR1 and on human FPR2 were > 10000 nM and 140 nM, respectively.

On to `COc1cc(F)c(-c2c(NC(=O)c3ccc(OC(F)(F)F)cc3)c(=O)n(-c3cccc(C(F)(F)F)n3)n2C)c(F)c1` [Example 155, N-[5-(2,6-difluoro-4-methoxyphenyl)-1-methyl-3-oxo-2-[6-(trifluoromethyl)pyridin-2-yl]-2,3-dihydro-1H-pyrazol-4-yl]-4-(trifluoromethoxy)benzamide], for which the figures for the EC50 at human FPR1 and on human FPR2 were 2200 nM and 9 nM, respectively.

For the molecule `COc1cc(F)c(-c2c(NC(=O)c3ccc(Cl)nc3)c(=O)n(-c3ccccc3)n2C)c(F)c1` [Example 25, 6-chloro-N-[5-(2,6-difluoro-4-methoxyphenyl)-1-methyl-3-oxo-2-phenyl-2,3-dihydro-1H-pyrazol-4-yl]pyridin-3-carboxamide], the EC50 at human FPR1 is > 10000 nM; at human FPR2 it was 280 nM.

`COc1cc(F)c(-c2c(NC(=O)c3ccc(OC(F)F)cc3)c(=O)n(-c3nccc(C)c3C#N)n2C)c(F)c1` [Example 201, N-[2-(3-cyano-4-methylpyridin-2-yl)-5-(2,6-difluoro-4-methoxyphenyl)-1-methyl-3-oxo-2,3-dihydro-1H-pyrazol-4-yl]-4-(difluoromethoxy)benzamide]: the concentration for a half-maximal effect (EC50) on human FPR1 was > 10000 nM; on human FPR2, 4 nM.

Regarding `COc1cc(F)c(-c2c(NC(=O)c3ccc(OC(F)F)cc3)c(=O)n(-c3nc(OCC(C)(C)O)ccc3Cl)n2C)c(F)c1` [Example 298, N-{2-[3-chloro-6-(2-hydroxy-2-methylpropoxy)pyridin-2-yl]-5-(2,6-difluoro-4-methoxyphenyl)-1-methyl-3-oxo-2,3-dihydro-1H-pyrazol-4-yl}-4-(difluoromethoxy)benzamide], the EC50 was determined as 440 nM at human FPR1 and 14 nM at human FPR2.

Turning to `COc1cc(F)c(-c2c(NC(=O)c3ccc(OC(F)F)cc3)c(=O)n(-c3nc(Cl)ccc3N3CC4(COC4)C3)n2C)c(F)c1` [Example 144, N-[2-(6-chloro-3-{2-oxa-6-azaspiro[3.3]heptan-6-yl}pyridin-2-yl)-5-(2,6-difluoro-4-methoxyphenyl)-1-methyl-3-oxo-2,3-dihydro-1H-pyrazol-4-yl]-4-(difluoromethoxy)benzamide], the concentration giving a half-maximal response (EC50) is > 10000 nM on human FPR1 and 22 nM on human FPR2.

As to `COc1cc(F)c(-c2c(NC(=O)c3ccc(OC(F)F)cc3)c(=O)n(-c3cccc(C(F)F)n3)n2C)c(F)c1` [Example 67, N-[5-(2,6-difluoro-4-methoxyphenyl)-2-[6-(difluoromethyl)pyridin-2-yl]-1-methyl-3-oxo-2,3-dihydro-1H-pyrazol-4-yl]-4-(difluoromethoxy)benzamide], the results for the EC50 on human FPR1 and on human FPR2 were 3400 nM and 9 nM, respectively.

On to `COc1cc(C2CCCN(C)C2)nc(-n2c(=O)c(NC(=O)c3ccc(OC(F)F)cc3)c(-c3c(F)cc(OC)cc3F)n2C)c1` (centres unmarked) [Example 343, N-(5-(2,6-Difluoro-4-methoxyphenyl)-2-(4-methoxy-6-(1-methylpiperidin-3-yl)pyridin-2-yl)-1-methyl-3-oxo-2,3-dihydro-1H-pyrazol-4-yl)-4-(difluoromethoxy)benzamide], for which the results for the EC50 at human FPR1 and at human FPR2 were > 10000 nM and 1 nM, respectively.
